Values quoted from earlier work as cited in patent US20120289547A1, “COMBINATIONS OF PROPIVERINE AND SALIVARY STIMULANTS FOR THE TREATMENT OF OVERACTIVE BLADDER” (THERAVIDA, INC., priority 2011, published 2012).

Conditions: 5 mg of pilocarpine

SMILES: CC[C@@H]1C(=O)OC[C@@H]1Cc1cncn1C [pilocarpine]
- Time of maximum saliva output after administration: about 30 minutes
